Where “and” joins values, the source holds several entries; their conditions need not be identical. Identical values can stand only once.
Test system: 227483-062-R1-J1-PDC complex spheroids with HUVEC/MSC, viability
Test: Anticancer human tumor 227483-062-R1-J1-PDC patient-derived pancreatic carcinoma cell line growth inhibition [CLK]
Settings: for viability, T/C: stronger effect = lower value
Summary of the method: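 Patient-derived tumor cells grown as complex spheroids with HUVEC endothelial cells and mesenchymal stem cells, treated with drug combinations. Concentrations descend in half-log steps from near clinical Cmax, or from 10 microM if Cmax unknown.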
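Note: spheroids exposed to compounds for seven days before readout.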
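Throughout, for viability, T/C: percent of DMSO vehicle control luminescence as 100% viability.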

C=CC(=O)N1CCN(c2nc(=O)n(-c3c(C)ccnc3C(C)C)c3nc(-c4c(O)cccc4F)c(F)cc23)C(C)C1 (centres undefined) + CNC(=O)c1ccc(Nc2nc(OC3CCCC3)c3c(-c4ccc5nc(C)oc5c4)c[nH]c3n2)c(OC)c1
IC50 (curve of first compound, second compound 0.0316 µM): > 10 µM
IC50 (curve of first compound, second compound 0.1 µM): > 10 µM
IC50 (curve of first compound, second compound 0.316 µM): > 10 µM
IC50 (curve of first compound, second compound 1 µM): > 10 µM
IC50 (curve of first compound, second compound 3.16 µM): 1.7 µM
IC50 (curve of first compound, second compound 10 µM): < 0.0316 µM
viability, T/C (second compound 0.0316 µM, first compound 0.0316 µM): 107%
viability, T/C (second compound 0.0316 µM, first compound 0.1 µM): 92%
viability, T/C (second compound 0.0316 µM, first compound 0.316 µM): 135%
viability, T/C (second compound 0.0316 µM, first compound 1 µM): 103%
viability, T/C (second compound 0.0316 µM, first compound 3.16 µM): 104%
viability, T/C (second compound 0.0316 µM, first compound 10 µM): 108%
viability, T/C (second compound 0.1 µM, first compound 0.0316 µM): 110%
viability, T/C (second compound 0.1 µM, first compound 0.1 µM): 101%
viability, T/C (second compound 0.1 µM, first compound 0.316 µM): 111%
viability, T/C (second compound 0.1 µM, first compound 1 µM): 118%
viability, T/C (second compound 0.1 µM, first compound 3.16 µM): 121%
viability, T/C (second compound 0.1 µM, first compound 10 µM): 107%
viability, T/C (second compound 0.316 µM, first compound 0.0316 µM): 111%
viability, T/C (second compound 0.316 µM, first compound 0.1 µM): 87.9%
viability, T/C (second compound 0.316 µM, first compound 0.316 µM): 108%
viability, T/C (second compound 0.316 µM, first compound 1 µM): 104%
viability, T/C (second compound 0.316 µM, first compound 3.16 µM): 124%
viability, T/C (second compound 0.316 µM, first compound 10 µM): 98.6%
viability, T/C (second compound 1 µM, first compound 0.0316 µM): 70.3%
viability, T/C (second compound 1 µM, first compound 0.1 µM): 57.6%
viability, T/C (second compound 1 µM, first compound 0.316 µM): 57.9%
viability, T/C (second compound 1 µM, first compound 1 µM): 63.5%
viability, T/C (second compound 1 µM, first compound 3.16 µM): 65.8%
viability, T/C (second compound 1 µM, first compound 10 µM): 52.3%
viability, T/C (second compound 3.16 µM, first compound 0.0316 µM): 45.4%
viability, T/C (second compound 3.16 µM, first compound 0.1 µM): 63.2%
viability, T/C (second compound 3.16 µM, first compound 0.316 µM): 50.2%
viability, T/C (second compound 3.16 µM, first compound 1 µM): 51.6%
viability, T/C (second compound 3.16 µM, first compound 3.16 µM): 47.9%
viability, T/C (second compound 3.16 µM, first compound 10 µM): 26.6%
viability, T/C (second compound 10 µM, first compound 0.0316 µM): 37.7%
viability, T/C (second compound 10 µM, first compound 0.1 µM): 35.5%
viability, T/C (second compound 10 µM, first compound 0.316 µM): 39.5%
viability, T/C (second compound 10 µM, first compound 1 µM): 44.5%
viability, T/C (second compound 10 µM, first compound 3.16 µM): 36%
viability, T/C (second compound 10 µM, first compound 10 µM): 18.6%

C=CC(=O)N1CCN(c2nc(=O)n(-c3c(C)ccnc3C(C)C)c3nc(-c4c(O)cccc4F)c(F)cc23)C(C)C1 (centres undefined)
viability, T/C (compound 0.0316 µM): 88.6% and 88%
viability, T/C (compound 0.1 µM): 83.2% and 92.8%
viability, T/C (compound 0.316 µM): 86% and 85.4%
viability, T/C (compound 1 µM): 95.2% and 125%
viability, T/C (compound 3.16 µM): 110% and 104%
viability, T/C (compound 10 µM): 109% and 95.8%
IC50 (curve of compound): > 10 µM

Source: PubChem BioAssay AID2060623 (Molecular Pharmacology Branch, DTP, NCI, 2025)
